Experimental data published in patent US20220339135A1, “COMPOSITIONS AND METHODS FOR MODULATING AN INFLAMMATORY RESPONSE” (Enzychem Lifesciences Corporation, priority 2019, published 2022).

How the values were obtained:
[1] = Whole-body autoradiography after single oral [14C] PLAG; type: in vivo, rats; conditions: 200 mg/kg oral
Description: Tissue distribution of the PLAG after single oral administration of [^14C] PLAG was conducted in Biotoxtech (Korea) using whole-body autoradiography. Crl:CD (SD) strain albino rats received the single oral administration of [^14C] PLAG at a dose of 200 mg/kg and the animals were sacrificed by CO2 asphyxiation at defined times, and whole body autoradiograms were prepared to investigate the tissue distribution of radioactivity and its time course. Sampling time points are 15 minutes, 1 hour, 8 hours, and 24 hours after administration. The carcass was sliced into 40 micro meter-thick coronal plane sections that were collected on adhesive tape (NA-70, Nakagawa). The freeze-dried sections covered with a protective membrane were placed in contact with imaging plate (BAS-SR2025, Fuji Photo Film) and the plates were exposed in lead-sealed boxes at room temperature for 24 hours. After exposure, the radioactivity recorded on the imaging plate was analyzed using a bio-imaging analyzer system.

[2] = tested on: total body irradiation by γ-ray; test: Survival rate and body weight of γ-ray radiated mice; type: in vivo
Description: 11 weeks Balb/c mice (10 males and 10 females) were divided into two groups: 1) radiated group (6.5Gy of TBI by γ-ray) and 2) PLAG (250 mg/kg of PLAG) administrated group with radiation (6.5Gy of TBI by γ-ray) (FIG. 39A). 6.5Gy of TBI was radiated on Day 0 and 250 mpk of PLAG was orally administrated from day 0 to day 30 daily. The survival rate of the mice was recorded daily until day 30.
(§1) 11 weeks Balb/c mice (10 males and 10 females) were divided into four groups: 1) radiated group (6.11Gy of TBI by γ-ray), 2) PLAG (10 mg/kg of PLAG) administrated group with radiation (6.11Gy of TBI by γ-ray), 3) PLAG (50 mg/kg of PLAG) administrated group with radiation (6.11Gy of TBI by γ-ray), and 4) PLAG (250 mg/kg of PLAG) administrated group with radiation (6.11Gy of TBI by γ-ray) (FIG. 40A). 6.11Gy of TBI was radiated on Day 0 and […] of PLAG was orally administrated from day 1 to day 30 daily. The survival rate of the mice, was recorded daily until day 30.
as §1, with “by γ-ray).” for “by γ-ray) (FIG. 40A).”, “Day 0,” for “Day 0”, “daily. Body weight” for “daily. The survival rate”, “the mice” for “the mice,”

[3] = tested on: gemcitabine-induced neutropenia; conditions: cited from earlier work
[4] = tested on: gemcitabine-induced neutrophil extravasation; test: Gemcitabine-induced neutropenia mice model; type: in vivo
Description: Male BALB/c mice were randomly divided into 3 groups; normal control group (n=5), gemcitabine only group (n=5) and gemcitabine with PLAG group (n=5). The mice were intraperitoneally (i.p.) injected with 50 mg/kg gemcitabine to induce neutropenia. PLAG was diluted with phosphate-buffered saline (PBS) and then orally administrated at a dose of 50 or 250 mg/kg/day. The normal control group was administered PBS only during the experiment. The whole blood was collected from the orbital sinuses using capillary tubes (Kimble Chase Life Science and Research Products LLC, FL, USA) and collection tubes containing K3E-K3EDTA (Greiner Bio-One International, Germany). To obtain peritoneal cells, 5 ml of cold PBS was injected to the left side of the peritoneal wall using a 5 mL syringe, and the fluid was aspirated from the peritoneum. The collected cells were counted by complete blood count (CBC) analysis using Mindray BC-5300 auto-hematology analyzer (Shenzhen Mindray Biomedical Electronics, China). To establish a 4T1 tumor-bearing mice model, the murine 4T1 mammary carcinoma cells (1×10^5) were subcutaneously injected on the right side of the abdomen. On the 10th day after tumor injection, the mice were intraperitoneally (i.p.) injected with 50 mg/kg gemcitabine, and the next day the whole blood was collected from the orbital sinuses as mentioned above before sacrificing the animals to obtain different organs of the body for RT-PCR.
PLAG inhibits gemcitabine-induced neutrophil extravasation into the peritoneum by down-regulating the expression of adhesion molecules in normal BALB/c mice. Male BALB/c mice of 8-10 weeks of age were orally administrated with 50 or 250 mg/kg of PLAG and then were intraperitoneally injected with 50 mg/kg gemcitabine. After 24 h, blood samples were collected by retro-orbital bleeding, and the number of blood neutrophils was determined by CBC analysis. Each group contains five mice. The population of blood neutrophils was analyzed by flow cytometry. Red cell-lysed whole blood was stained with FITC-conjugated anti-Ly6G and PE-Cy7-conjugated anti-CD11b antibodies to determine the circulating neutrophil population. Ly6G+/CD11b+ cells were further stained with APC-conjugated anti-L-selectin and APC-conjugated anti-LFA-1 antibodies and were analyzed by flow cytometry to determine the expression of adhesion molecules.
The mice were intraperitoneally (i.p.) injected with 50 mg/kg gemcitabine to induce neutropenia. PLAG was diluted with phosphate-buffered saline (PBS) and then orally administrated at a dose of 50 or 250 mg/kg/day. The normal control group was administered PBS only during the experiment. At 15 h after gemcitabine treatment, the whole blood was collected from the orbital sinuses using capillary tubes (Kimble Chase Life Science and Research Products LLC, FL, USA) and collection tubes containing K3E-K3EDTA (Greiner Bio-One International, Kremsmünster, Austria). To obtain peritoneal cells, 5 ml of cold PBS was injected to the left side of the peritoneal wall using a 5 mL syringe, and the fluid was aspirated from the peritoneum. The collected cells were counted by complete blood count (CBC) analysis using Mindray BC-5300 auto-hematology analyzer (Shenzhen Mindray Biomedical Electronics, Guangdong Sheng, China).
To establish a 4T1 tumor-bearing mice model, the murine 4T1 mammary carcinoma cells (1×105) were subcutaneously injected on the right side of the abdomen. On the 10th day after tumor injection, the mice were intraperitoneally (i.p.) injected with 50 mg/kg gemcitabine, and the next day the whole blood was collected from the orbital sinuses as mentioned above before sacrificing the animals to obtain different organs of the body.

SMILES: CCCCC/C=C\C/C=C\CCCCCCCC(=O)OC(COC(C)=O)COC(=O)CCCCCCCCCCCCCCC (racemic) [PLAG, 1-palmitoyl-2-linoleoyl-3-acetylglycerol]
- radioactivity in stomach and intestinal tract incl. luminal contents ([1]; 15 minutes to 1 hour): high levels
- radioactivity in the liver and brown fat tissues ([1]; 8 hours): Moderate levels
- radioactivity in the luminal side of the stomach ([1]; 8 hours): high levels
- radioactivity in the liver ([1]; 24 hours): low levels
- radioactivity in other tissues ([1]; any sampling time point): not different from background level
- radioactivity in the liver ([1]; up to 1 hour): Low levels
- number of mice whose body weight loss is more than 10% and 20% ([2]; 6.11Gy TBI, 50mpk and 250 mpk): significantly less number
- body weight after radiation ([2]; 6.11Gy TBI, PLAG 10 mg/kg): fluctuating and decreasing bodyweight
- survival rate after 30 days of radiation ([2]; 6.11Gy TBI, PLAG 10 mg/kg): 5%
- body weight loss ([2]; 6.11Gy TBI, PLAG 50 mg/kg): less than 10%
- survival rate after 30 days of radiation ([2]; 6.11Gy TBI, PLAG 50 mg/kg): 40%
- body weight loss ([2]; 6.11Gy TBI, PLAG 250 mg/kg): less than 10%
- survival rate after 30 days of radiation ([2]; 6.11Gy TBI, PLAG 250 mg/kg): 80%
- survival rate relative to the radiated group ([2]; 6.5Gy TBI, PLAG 250 mg/kg): 12 times
- survival rate 30 days after radiation ([2]; 6.5Gy TBI, PLAG 250 mg/kg daily day 0-30): 60%
- gemcitabine-induced neutropenia ([3]; Jeong et al., 2019): attenu¬ated the neutropenia
- anti-cancer effect of gemcitabine ([3]; athymic nude mice implanted with a human myeloma cell line): did not interfere
- neutrophil counts in the peritoneum ([4]; 15 hours after gemcitabine): effectively decreases
- gemcitabine-induced cell surface expression of L-selectin and LFA-1 ([4]; Gr-1+/CD11b+ cells): effectively inhibited
- circulating neutrophil counts ([4]; PLAG 50 and 250 mg/kg oral, 15 hours after gemcitabine, dose-dependent): restored circulating neutrophils to an almost normal range
- population of Gr-1+ and CD11b+ neutrophils in the blood ([4]; gemcitabine 50 mg/kg i.p.): maintained
